Experimental data taken from the supplement of paper PMC10307832.

Tests used:
Experiment in all cases: relative viability (nuclei count vs DMSO), 5 days (fraction); higher = more cells survive
RO-3306 + OSI-027 = compound: C1=CC2=C(C=CC(=C2)C=C3C(=O)NC(=NCC4=CC=CS4)S3)N=C1 [RO-3306] + COc1cccc2cc(-c3nc([C@H]4CC[C@H](C(=O)O)CC4)n4ncnc(N)c34)[nH]c12 [OSI-027] (partner 0.5 µM)
In short: (§1)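 Lung cancer cell lines, seeded in 1536-well plates, were treated the following day by pin tool with a single drug or with five library-drug doses (not always all listed) in √10 steps on top of a fixed anchor-drug dose. Cells were fixed and nuclei stained in one step after 5 days, and nuclei were counted. Relative viability is the nuclei count for treated wells divided by that for vehicle wells, reported as medians of duplicate plates.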

RO-3306 + Alpelisib = compound: C1=CC2=C(C=CC(=C2)C=C3C(=O)NC(=NCC4=CC=CS4)S3)N=C1 [RO-3306] + Cc1nc(NC(=O)N2CCC[C@H]2C(N)=O)sc1-c1ccnc(C(C)(C)C(F)(F)F)c1 [Alpelisib] (partner 2 µM)
In short: as §1

[1] = compound: O=S(=O)(c1ccccc1)N(CC(F)(F)F)c1ccc(C(O)(C(F)(F)F)C(F)(F)F)cc1 + CC(C)C[C@H](NC(=O)[C@H](Cc1ccccc1)NC(=O)c1cnccn1)B(O)O [Bortezomib] (partner 0.002 µM)
In short: as §1

[2] = compound: O=S(=O)(c1ccccc1)N(CC(F)(F)F)c1ccc(C(O)(C(F)(F)F)C(F)(F)F)cc1 + Cc1nc(Nc2ncc(C(=O)Nc3c(C)cccc3Cl)s2)cc(N2CCN(CCO)CC2)n1 [Dasatinib] (partner 0.075 µM)
In short: as §1

Cell Line | relative viability (RO-3306 + OSI-027; first compound 0.01 µM) | relative viability (RO-3306 + OSI-027; first compound 0.03162 µM) | relative viability (RO-3306 + OSI-027; first compound 0.1 µM) | relative viability (RO-3306 + OSI-027; first compound 0.3162 µM) | relative viability (RO-3306 + OSI-027; first compound 1 µM) | relative viability (RO-3306 + Alpelisib; first compound 0.01 µM) | relative viability (RO-3306 + Alpelisib; first compound 0.03162 µM) | relative viability (RO-3306 + Alpelisib; first compound 0.1 µM) | relative viability (RO-3306 + Alpelisib; first compound 0.3162 µM) | relative viability (RO-3306 + Alpelisib; first compound 1 µM) | relative viability ([1]; first compound 0.8 µM) | relative viability ([1]; first compound 2.53 µM) | relative viability ([1]; first compound 8 µM) | relative viability ([2]; first compound 0.8 µM) | relative viability ([2]; first compound 2.53 µM) | relative viability ([2]; first compound 8 µM)
EMC-BAC-2 | 0.306 | 0.36 | 0.358 | 0.352 | 0.315 | 0.763 | 0.63 | 0.717 | 0.774 | 0.726 | 1.07 | 1.1 | 1.02 | 0.368 | 0.325 | 0.353
EPLC-272H | 0.259 | 0.252 | 0.29 | 0.223 | 0.283 | 0.927 | 0.79 | 0.909 | 0.829 | 0.972 | 0.964 | 0.899 | 0.656 | 0.323 | 0.398 | 0.384
H3255 | 0.671 | 0.476 | 0.604 | 0.594 | 0.504 | 0.576 | 0.59 | 0.632 | 0.628 | 0.6 | 0.564 | 0.708 | 0.761 | 0.292 | 0.309 | 0.362
HARA | 0.661 | 0.449 | 0.527 | 0.612 | 0.436 | 1.05 | 0.754 | 0.953 | 0.973 | 0.795 | 1.12 | 1.04 | 1.04 | 0.294 | 0.287 | 0.242
HCC-15 | 0.664 | 0.562 | 0.649 | 0.808 | 0.608 | 1.03 | 0.815 | 0.869 | 0.887 | 0.855 | 1.08 | 0.923 | 0.948 | 0.616 | 0.496 | 0.539
HCC-44 | 0.371 | 0.441 | 0.434 | 0.402 | 0.387 | 0.853 | 0.836 | 0.817 | 1.03 | 0.832 | 1.06 | 0.871 | 0.863 | – | – | –
HCC-78 | 0.324 | 0.401 | 0.384 | 0.404 | 0.329 | 0.326 | 0.279 | 0.359 | 0.376 | 0.339 | 0.531 | 0.39 | 0.52 | 0.374 | 0.336 | 0.919
HCC-366 | 1.13 | 1.06 | 0.847 | 0.955 | 0.654 | 0.377 | 0.347 | 0.389 | 0.503 | 0.34 | 1.23 | 1.08 | 1.08 | 0.856 | 0.674 | 0.606
HCC-827 | 0.855 | 0.59 | 0.808 | 0.8 | 0.8 | 1.04 | 1.05 | 0.921 | 0.946 | 1.06 | 1.08 | 0.979 | 1.04 | 0.37 | 0.36 | 0.316
HOP-62 | 0.827 | 0.593 | 0.727 | 0.89 | 0.8 | 1.02 | 0.992 | 0.933 | 1.04 | 0.986 | 0.39 | 0.634 | 0.93 | 0.716 | 0.552 | 0.544
